Source: patent US20250059196A1 (SHANGHAI HANSOH BIOMEDICAL CO., LTD., priority 2021, published 2025)

Experiments:
[1] = target: Recombinant human MALT1/MLT protein (Homo sapiens (Human), UniProt Q9UDY8); assay: Inhibitory effect on MALT1 enzyme activity (Ac-LRSR-AMC substrate, fluorescence 460 nm); type: biochemical; settings: 10 nM FL MALT1, Ac-LRSR-AMC substrate, 50 min pre-incubation, 4 h reaction
Method in brief: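 Full-length MALT1 (10 nM) pre-incubated 50 min at room temperature with compound (11-point 3-fold series from 1000 nM), then 4 h reaction with […] Ac-LRSR-AMC in Tris pH 7.5, 0.6 M citrate, DTT, EDTA, BSA, 1.5% DMSO. Fluorescence at 460 nm; IC50 from four-parameter fit.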

[2] = test system: OCI-Ly3 cells; assay: Inhibition of proliferation of OCI-Ly3 cells (CellTiter-Glo); type: cell-based, human; settings: Homo sapiens, 96 h incubation, read-out: Inhibition test of proliferation of OCI-Ly3 cells IC50
Method in brief: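 OCI-Ly3 cells were plated and dosed the next day with 9 concentrations in 3-fold dilutions from 1000 nM to 0.15 nM. Cells were incubated 96 h, and viability was read by CellTiter-Glo luminescence. IC50 was fitted by four-parameter variable-slope log(inhibitor)-response regression.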

[3] = target: MALT1 protease activity in TMD8 cells (substrate BCL-10) (Homo sapiens (Human), UniProt Q9UDY8); assay: Intracellular MALT1 protease activity detection (BCL-10 ELISA in TMD8 cells); type: cell-based; settings: undigested BCL-10 by ELISA, 30 min compound then 2 h stimulation cocktail, read-out: Bcl10 TMD8 IC50
MALT1 protease activity in TMD8 cells (substrate BCL-10), sequence (Q9UDY8 whole entry): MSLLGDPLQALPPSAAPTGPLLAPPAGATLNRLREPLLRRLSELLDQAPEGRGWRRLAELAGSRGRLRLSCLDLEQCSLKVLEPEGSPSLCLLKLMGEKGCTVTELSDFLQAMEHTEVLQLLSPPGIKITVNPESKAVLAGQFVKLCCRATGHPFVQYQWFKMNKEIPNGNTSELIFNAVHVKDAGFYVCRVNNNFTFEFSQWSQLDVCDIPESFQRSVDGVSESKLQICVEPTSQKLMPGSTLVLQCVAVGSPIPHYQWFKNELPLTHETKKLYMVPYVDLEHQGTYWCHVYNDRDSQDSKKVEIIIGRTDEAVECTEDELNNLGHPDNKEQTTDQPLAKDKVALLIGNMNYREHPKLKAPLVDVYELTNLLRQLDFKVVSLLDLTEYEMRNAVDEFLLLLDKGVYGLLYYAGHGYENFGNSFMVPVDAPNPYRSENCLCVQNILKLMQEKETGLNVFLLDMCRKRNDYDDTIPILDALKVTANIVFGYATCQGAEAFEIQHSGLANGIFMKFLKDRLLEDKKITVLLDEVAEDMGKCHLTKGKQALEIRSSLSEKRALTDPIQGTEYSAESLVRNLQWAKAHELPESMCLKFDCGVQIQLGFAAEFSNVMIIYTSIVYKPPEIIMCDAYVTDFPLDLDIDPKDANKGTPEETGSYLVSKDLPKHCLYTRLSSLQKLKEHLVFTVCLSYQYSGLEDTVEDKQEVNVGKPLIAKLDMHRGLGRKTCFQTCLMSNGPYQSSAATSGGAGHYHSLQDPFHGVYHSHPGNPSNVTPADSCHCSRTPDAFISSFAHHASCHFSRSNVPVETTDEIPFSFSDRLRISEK
Experimental: By detecting the digestion level of the substrate BCL-10 by MALT1 in TMD8 cells, the inhibitory effect of the compound on MALT1 protease activity in the cellular environment was tested.
The ELISA sandwich method was used to detect the content of undigested BCL-10 protein in cells and determine the inhibitory effect of compounds on intracellular MALT1 protease activity. The highest concentration of the compound detected was 10000 nM, 3-fold dilution, a total of 9 concentrations (10000 nM-1.5 nM). Cells were plated at an appropriate density. Compounds of corresponding concentrations were first added for action for 30 min, and then eBioscience cell stimulation cocktail was added to stimulate the cells for 2 h. Cell lysate was then collected. The cell lysate was added to the assay plate previously coated with recombinant BCL-10 antibody (Abcam, #Ab33905) and incubated at 4° C. overnight. The next day, BCL-10 detection antibody (Santacruz, #Sc-5273HRP) was added and incubated for 2 h, TMB substrate was used for color development for about 30 min, then the color development was terminated, and a microplate reader was used for detection.
2) Curve fitting: Log(inhibitor) vs. response—Variable slope (four parameters) in GraphPad Prism 6 was used to perform fitting equation analysis on compound concentration and corresponding inhibition rate, the curve was fit and compound IC50 value was obtained.
The fitting calculation equation is Y=Bottom+(Top−Bottom)/(1+10^((Log IC50−X)*HillSlope))

[4] = Pharmacokinetics of oral administration in Balb/C mice; type: in vivo; settings: male, mouse, po, 30 mg/kg, P.O., plasma; for AUC(0-t): read-out: AUC 0-t; for Cmax: read-out: Cmax; for MRT: read-out: MRT; for Tmax: read-out: Tmax
Experimental: Balb/C mice were used as test animals to study the pharmacokinetic behavior of the compound in the plasma of mice after oral administration at a dose of 30 mg/kg.
3 Balb/C mice (3/example), male, from Shanghai Jiesijie Experimental Animal Co., Ltd., animal production license number (SCXK (Shanghai) 2013-0006 N0.311620400001794).
3 Balb/C mice, male; p.o. respectively at a dose of 30 mg/kg and an administration volume of 10 mL/kg after the mice were fasted overnight.
Before and after administration of mice, 0.1 mL of blood was collected from the orbit at 0, 0.5, 1, 2, 4, 6, 8 and 24 h, and placed in EDTA-K2 test tubes, which was centrifuged at 6000 rpm at 4° C. for 6 min to separate plasma which was stored at −80° C.
• 1) 160 μL of acetonitrile was added to 40 μL of plasma sample for precipitation, and same was mixed and centrifuged at 3500×g for 5 to 20 min. • 2) 100 μL of the treated supernatant solution was taken and subjected to LC/MS/MS to analyze the concentrations of the test compounds.
• Liquid phase conditions: Shimadzu LC-20AD pump • Mass spectrometry conditions: AB Sciex API 4000 mass spectrometer • Chromatographic column: Phenomenex Gemiu 5 um C18 50×4.6 mm • Mobile phase: liquid A is 0.1% aqueous formic acid solution, liquid B is acetonitrile • flow rate: 0.8 mL/min • Elution time: 0-4.0 min, the eluent is as follows:
The main pharmacokinetic parameters were calculated using WinNonlin 8.2.

Recombinant human MALT1/MLT protein, sequence (Q9UDY8 whole entry): as above

Compound	IC50 [1]	IC50 [2]	IC50 [3]	AUC(0-inf) [4]	half-life [4]	AUC(0-t) [4]	Cmax [4]	MRT [4]	Tmax [4]
O=C(Nc1cnc(-n2nccn2)c(C(F)(F)F)c1)c1cnn(-c2ccc3c4c(cccc24)C(=O)N3)c1C(F)(F)F [Example 18, N-(6-(2H-1,2,3-triazol-2-yl)-5-trifluoromethylpyridin-3-yl)-1-(2-oxo-1,2-dihydrobenzo[cd]indol-6-yl)-5-trifluoromethyl-1H-pyrazole-4-carboxamide]	24 nM	88 nM	61 nM	222 µg·h/mL	1.9 h	222 µg·h/mL	22900 ng/mL	5.4 h	2 h
O=C(Nc1ccc(-n2nccn2)c(Cl)c1)c1cnn(-c2ccc3c4c(cccc24)C(=O)N3)c1C(F)(F)F [Example 53, N-(3-chloro-4-(2H-1,2,3-triazol-2-yl)phenyl)-1-(2-oxo-1,2-dihydrobenzo[cd]indol-6-yl)-5-(trifluoromethyl)-1H-pyrazole-4-carboxamide]	25 nM	101 nM	56 nM			256 µg·h/mL	14100 ng/mL		8 h
O=C(Nc1ccnc(C(F)(F)F)c1)c1cnn(-c2ccc3c4c(cccc24)C(=O)N3)c1C1CC1 [Example 55, 5-cyclopropyl-1-(2-oxo-1,2-dihydrobenzo[cd]indol-6-yl)-N-(2-(trifluoromethyl)pyridin-4-yl)-1H-pyrazole-4-carboxamide]	171 nM	211 nM	50 nM	472 µg·h/mL	8.6 h	401 µg·h/mL	28300 ng/mL	12.2 h	4 h
